From patent US11866720B2, “Transgenic or non-transgenic plants with mutated protoporphyrinogen oxidase having increased tolerance to herbicides” (priority 2013, dated 2024)
Values joined by “and” are separate entries in the source; they are usually repeats but may differ in a detail not shown here. Equal entries are not always repeated. Where two headings read alike, the source gives them in different places.

Legend:
Format in all cases: in vivo, Glycine max
[1] = system: transgenic soybean expressing mutated PPO; conditions: T1 soybean, field; on injury (1-5 point scale): key: 1: no obvious damage (no phytotoxicity); 2: minor amount of leaf damage, plant will survive; 3: moderate amount of leaf damage, plant will survive; 4: severe amount of leaf damage, plant will survive; 5: no surviving plants - all plants dead/dying
[2] = system: transgenic soybean expressing mutated PPO; assay: Soybean T0 cuttings, greenhouse spray test (injury score 0-9, 1 week after treatment); conditions: for Injury score from 0-9: soybean T0 cuttings, 1 week after treatment
Description: For testing of T0 plants, cuttings can be used. In the case of soybean plants, an optimal shoot for cutting is about 7.5 to 10 cm tall, with at least two nodes present. Each cutting is taken from the original transformant (mother plant) and dipped into rooting hormone powder (indole-3-butyric acid, IBA). The cutting is then placed in oasis wedges inside a bio-dome. Wild type cuttings are also taken simultaneously to serve as controls. The cuttings are kept in the bio-dome for 5-7 days and then transplanted to pots and then acclimated in the growth chamber for two more days. Subsequently, the cuttings are transferred to the greenhouse, acclimated for approximately 4 days, and then subjected to spray tests as indicated. Depending on the species, the plants are kept at 10-25° C. or 20-35° C. The test period extends over 3 weeks. During this time, the plants are tended and their response to the individual treatments is evaluated. Herbicide injury evaluations are taken at 2 and 3 weeks after treatment. Plant injury is rated on a scale of 0% to 100%, 0% being no injury and 100% being complete death.
Soybean cv Jake was transformed as previously described by Siminszky et al., Phytochem Rev. 5:445-458 (2006). After regeneration, transformants were transplanted to soil in small pots, placed in growth chambers (16 hr day/8 hr night; 25° C. day/23° C. night; 65% relative humidity; 130-150 microE m-2 s-1) and subsequently tested for the presence of the T-DNA via Taqman analysis. After a few weeks, healthy, transgenic positive, single copy events were transplanted to larger pots and allowed to grow in the growth chamber. An optimal shoot for cutting was about 3-4 inches tall, with at least two nodes present. Each cutting was taken from the original transformant (mother plant) and dipped into rooting hormone powder (indole-3-butyric acid, IBA). The cutting was then placed in oasis wedges inside a bio-dome. The mother plant was taken to maturity in the greenhouse and harvested for seed. Wild type cuttings were also taken simultaneously to serve as negative controls. The cuttings were kept in the bio-dome for 5-7 days and then transplanted to 3 inch pots and then acclimated in the growth chamber for two more days. […] Herbicide injury evaluations were taken at 2, 7, 14 and 21 days after treatment. Results are shown in Tables 11a-11i, and FIGS. 5, 6, and 7.
The following gives a definition of the injury scores measured above: […]

[3] = system: transgenic soybean expressing mutated PPO; assay: Soybean segregating T1 individuals, greenhouse spray test (injury 0-9); conditions: Saflufenacil 150 g ai/ha, 1 week after treatment

CC(C)N(C)S(=O)(=O)NC(=O)c1cc(-n2c(=O)cc(C(F)(F)F)n(C)c2=O)c(F)cc1Cl [Saflufenacil, saflufenacil]
Injury rating (1-5 point scale) ([1]; SDS-11052 LTM385-1 AmtuPPX2L_R128A_F420M, Saflufenacil (75 gai/ha), 3 days after treatment): 3
Injury rating (1-5 point scale) ([1]; SDS-11052 LTM385-1 AmtuPPX2L_R128A_F420M, Saflufenacil (150 gai/ha), 3 days after treatment): 3
Injury rating (1-5 point scale) ([1]; SDS-11105 LTM387-1 AmtuPPX2L_R128A_F420V, Saflufenacil (75 gai/ha), 3 days after treatment): 2.5
Injury rating (1-5 point scale) ([1]; SDS-11105 LTM387-1 AmtuPPX2L_R128A_F420V, Saflufenacil (150 gai/ha), 3 days after treatment): 2.5
Injury rating (1-5 point scale) ([1]; SDS-11110 LTM387-1 AmtuPPX2L_R128A_F420V, Saflufenacil (75 gai/ha), 3 days after treatment): 2.5
Injury rating (1-5 point scale) ([1]; SDS-11110 LTM387-1 AmtuPPX2L_R128A_F420V, Saflufenacil (150 gai/ha), 3 days after treatment): 2.5
Injury rating (1-5 point scale) ([1]; SDS-11111 LTM386-1 AmtuPPX2L_R128A_F420I, Saflufenacil (75 gai/ha), 3 days after treatment): 2.5
Injury rating (1-5 point scale) ([1]; SDS-11111 LTM386-1 AmtuPPX2L_R128A_F420I, Saflufenacil (150 gai/ha), 3 days after treatment): 2.5
Injury rating (1-5 point scale) ([1]; SDS-11118 LTM386-1 AmtuPPX2L_R128A_F420I, Saflufenacil (75 gai/ha), 3 days after treatment): 2
Injury rating (1-5 point scale) ([1]; SDS-11118 LTM386-1 AmtuPPX2L_R128A_F420I, Saflufenacil (150 gai/ha), 3 days after treatment): 2
Injury rating (1-5 point scale) ([1]; Wildtype Jake, Saflufenacil (75 gai/ha), 3 days after treatment (Table 11e)): 5
Injury rating (1-5 point scale) ([1]; Wildtype Jake, Saflufenacil (75 gai/ha), 3 days after treatment (Table 11d)): 5
Injury rating (1-5 point scale) ([1]; Wildtype Jake, Saflufenacil (150 gai/ha), 3 days after treatment (Table 11e)): 5
Injury rating (1-5 point scale) ([1]; Wildtype Jake, Saflufenacil (150 gai/ha), 3 days after treatment (Table 11d)): 5
injury (1-5 point scale) ([1]; wild type, Saflufenacil 75 g ai/ha, 3 days after treatment): 5
injury (1-5 point scale) ([1]; wild type, Saflufenacil 150 g ai/ha, 3 days after treatment): 5
Injury rating (1-5 point scale) ([1]; wild type, saflufenacil: treatment 1 150 g ai/ha, treatment 2 0, 7 DAT): 5
Injury rating (1-5 point scale) ([1]; wild type, saflufenacil: treatment 1 300 g ai/ha, treatment 2 300 g ai/ha, 14 DAT): 5
injury score 1 WAT ([2]; Soy T0 AmtuPPX2L_R128L_F420V event 1, greenhouse, 100 g ai/ha): 4
injury score 1 WAT ([2]; Soy T0 AmtuPPX2L_R128L_F420V event 1, greenhouse, 200 g ai/ha): 6
injury score 1 WAT ([2]; Soy T0 AmtuPPX2L_R128L_F420V event 2, greenhouse, 100 g ai/ha): 1
injury score 1 WAT ([2]; Soy T0 AmtuPPX2L_R128L_F420V event 2, greenhouse, 200 g ai/ha): 2
Injury score from 0-9 ([2]; AmtuPPX2L (10 events), Kixor 12.5 + 1% MSO): 2
Injury score from 0-9 ([2]; AmtuPPX2L (10 events), Kixor 25 + 1% MSO): 4
Injury score from 0-9 ([2]; AmtuPPX2L (10 events), Kixor 50 + 1% MSO): 7
Injury score from 0-9 ([2]; AmtuPPX2L_F420L (7 events), Kixor 12.5 + 1% MSO): 1
Injury score from 0-9 ([2]; AmtuPPX2L_F420L (7 events), Kixor 25 + 1% MSO): 0
Injury score from 0-9 ([2]; AmtuPPX2L_F420L (7 events), Kixor 50 + 1% MSO): 0
Injury score from 0-9 ([2]; AmtuPPX2L_F420M (8 events), Kixor 25 + 1% MSO): 0
Injury score from 0-9 ([2]; AmtuPPX2L_F420M (8 events), Kixor 50 + 1% MSO): 3
Injury score from 0-9 ([2]; AmtuPPX2L_F420M (8 events), Kixor 100 + 1% MSO): 3
Injury score from 0-9 ([2]; AmtuPPX2L_R128A_F420I (9 events), Kixor 200 + 1% MSO): 1
Injury score from 0-9 ([2]; AmtuPPX2L_R128A_F420L (6 events), Kixor 25 + 1% MSO): 0
Injury score from 0-9 ([2]; AmtuPPX2L_R128A_F420L (6 events), Kixor 50 + 1% MSO): 1
Injury score from 0-9 ([2]; AmtuPPX2L_R128A_F420L (6 events), Kixor 100 + 1% MSO): 1
Injury score from 0-9 ([2]; AmtuPPX2L_R128A_F420M (7 events), Kixor 100 + 1% MSO): 2
Injury score from 0-9 ([2]; AmtuPPX2L_R128A_F420M (7 events), Kixor 200 + 1% MSO): 2
Injury score from 0-9 ([2]; AmtuPPX2L_R128A_F420V (14 events), Kixor 100 + 1% MSO): 2
Injury score from 0-9 ([2]; AmtuPPX2L_R128A_F420V (14 events), Kixor 200 + 1% MSO): 2
Injury score from 0-9 ([2]; AmtuPPX2L_dG210 (13 events), Kixor 25 + 1% MSO): 1
Injury score from 0-9 ([2]; AmtuPPX2L_dG210 (13 events), Kixor 50 + 1% MSO): 2
Injury score from 0-9 ([2]; AmtuPPX2L_dG210 (13 events), Kixor 100 + 1% MSO): 1
Injury score from 0-9 ([2]; AmtuPPX2L_dG210_R128L (12 events), Kixor 25 + 1% MSO): 0
Injury score from 0-9 ([2]; AmtuPPX2L_dG210_R128L (12 events), Kixor 50 + 1% MSO): 1
Injury score from 0-9 ([2]; AmtuPPX2L_dG210_R128L (12 events), Kixor 100 + 1% MSO): 1
Injury score from 0-9 ([2]; NitabPPX2 (13 events), Kixor 12.5 + 1% MSO): 3
Injury score from 0-9 ([2]; NitabPPX2 (13 events), Kixor 25 + 1% MSO): 6
Injury score from 0-9 ([2]; NitabPPX2 (13 events), Kixor 50 + 1% MSO): 9
Injury score from 0-9 ([2]; NitabPPX2_R98A_F392V (9 events), Kixor 50 + 1% MSO): 0
Injury score from 0-9 ([2]; NitabPPX2_R98A_F392V (9 events), Kixor 100 + 1% MSO): 2
Injury score from 0-9 ([2]; NitabPPX2_R98A_F392V (9 events), Kixor 200 + 1% MSO): 2
Injury score from 0-9 ([2]; wild type Jake variety, Kixor 12.5 + 1% MSO): 9
Injury score from 0-9 ([2]; wild type Jake variety, Kixor 25 + 1% MSO): 9
Injury score from 0-9 ([2]; wild type Jake variety, Kixor 50 + 1% MSO): 9
Injury score from 0-9 ([2]; wild type Jake variety, Kixor 100 + 1% MSO): 9
Injury score from 0-9 ([2]; wild type Jake variety, Kixor 200 + 1% MSO): 9
injury (0-9 point scale) ([3]; SDS10791 AmtuPPX2L R128A_F420I): 1 (2×) and 2 and 0 and 9 (4×)
injury (0-9 point scale) ([3]; SDS-10642 AmtuPPX2L R128A_F420L): 0 (6×) and 1 (2×)
injury (0-9 point scale) ([3]; SDS-10648 AmtuPPX2L R128A_F420I): 3 and 4 (3×) and 5 (3×) and 6
injury (0-9 point scale) ([3]; SDS-10652 AmtuPPX2L L397D_F420V): 3 (3×) and 5 (2×) and 4 (2×) and 6
injury (0-9 point scale) ([3]; SDS-10787 AmtuPPX2L R128A_F420L): 6 and 5 and 4 (4×) and 0 and 9
injury (0-9 point scale) ([3]; SDS-10985 AmtuPPX2L R128A_F420M): 0 (3×) and 1 (2×) and 3 and 2
injury (0-9 point scale) ([3]; SDS-10990 AmtuPPX2L R128A_F420M): 3 (4×) and 4 and 9 and 0 and 1
injury (0-9 point scale) ([3]; SDS-11034 AmtuPPX2L R128A_F420V): 0 (5×) and 5 and 1 and 2
injury (0-9 point scale) ([3]; wild type): 9
